For this data set, the system named is rat mammary adenocarcinoma cells (ATCC 13762, Mat B cells). Nature of the data set: MR imaging on a rat tumor model (tumor enhancement). The class given is in vivo. Here is the method: Imaging was done on a rat tumor model. Specifically, rat mammary adenocarcinoma cells (ATCC 13762, Mat B cells) were implanted in Fisher 344 female rats ([…] in 0.5 ml phosphate buffered saline). After 7-9 days, tumors were about 10 mm in diameter and the imaging was done at that point. Imaging was performed using a GE CSI scanner at 2T with a 33 cm bore. A birdcage quadrature coil was used for transmission and receiving. T1 weighted images were obtained (TR 250 ms, TE 18 MS, NEX 16). Rats were imaged prior to injection of contrast agent. […] The rats were then imaged immediately after injection and then at 24 hours.

Molecules are shown by their SMILES.

Consider `O=C([O-])CN(CCN(CC(=O)[O-])CC(=O)O)CCN(CC(=O)[O-])CC(=O)O.[Gd+3]` [Gd-DTPA], for which the tumor enhancement (rat tumor model, standard dose of 0.1 mmol Gd/kG) is 70%. Moreover, the “wash out of tumors” value (rat, in vivo) is “rapidly wash out of tumors”.

The values above are taken from patent US20040022733A1, “Conjugated lysine copolymers” (priority 2002, published 2004).
